Laboratory results from patent publication US8772267B2, “Treatment of spinal mechanical pain” (New York University, priority 2002, dated 2014).

Legend:
antinociception = conditions: injected into the tails of mice; cited from earlier work
[1] = known; cited from earlier work
[2] = Adverse effects in the infused subjects; type: in vivo, human
Procedure: (§1) Three subjects, suffering from chronic daily (longer than 1 year) axial mechanical pain of the spine, were given approximately 1.2 mg per kg pamidronate as an intravenous infusion over 4 hours once a day for three consecutive days (total 3.6 mg/kg).
(§2) On the second day of infusion, 2 of the 3 subjects reported myalgias that responded well to anti-inflammatory (NSAID) agents. […] Assessments of axial spinal pain using a numerical scale (0=no pain; 10=the worst pain imaginable) were performed at baseline and at 1 month, 2 month, 4 month, and 6 month follow-up visits.

[3] = tested on: axial mechanical pain of the spine; assay: Axial spinal pain on a numerical scale after intravenous infusion in subjects with chronic spinal mechanical pain; type: in vivo, human
Procedure: as §1, §2

[4] = tested on: bone pain from metastatic cancer; conditions: patients suffering from bone pain from metastatic cancer; cited from earlier work
[5] = Bone density of the infused subjects; type: in vivo, human; conditions: all three subjects
Procedure: as §1
Assessments of axial spinal pain using a numerical scale (0=no pain; 10=the worst pain imaginable) were performed at baseline and at 1 month, 2 month, 4 month, and 6 month follow-up visits.

bone resorption = conditions: animal studies, cited from earlier work
[6] = Subject 1, baseline 8, scale 0-10, 1.2 mg/kg iv once a day for 3 days
[7] = Subject 2, baseline 8-9, scale 0-10, 1.2 mg/kg iv once a day for 3 days
[8] = Subject 3, baseline 5, scale 0-10, 1.2 mg/kg iv once a day for 3 days

O=P(O)(O)C(Cl)(Cl)P(=O)(O)O [clodronate]
antinociceptive effect (antinociception): dose-dependent antinociception

CC(C)Cc1ccc(C(C)C(=O)O)cc1 (centres unmarked) [ibuprofen]
duration of analgesic effect [1]: only a few hours

CC(=O)Nc1ccc(O)cc1 [acetaminophen]
duration of analgesic effect [1]: only a few hours

NCCC(O)(P(=O)(O)O)P(=O)(O)O [pamidronate]
subjects reporting myalgias ([2]; second day of infusion, responded well to NSAID agents): 2 of the 3
hypocalcemia, cardiac, hepatic or renal impairments ([2]; three subjects, 3.6 mg/kg total iv): did not exhibit any hypocalcemia, cardiac, hepatic or renal impairments
use of opioid agents ([3]; 2 months from initiation of infusion therapy): all subjects discontinued the opioid agents
pain status of all three subjects 6 months after the 3-day therapy ([3]; 6 months after therapy, all three subjects): pain free
axial spinal pain, numerical scale, 1 month ([3]; Subject 1 (DDD and osteopenia), baseline 8, 0=no pain, 10=worst pain imaginable, 1.2 mg/kg iv over 4 h once a day for 3 days): 4
axial spinal pain, numerical scale, 2 months [3, 6]: 0
axial spinal pain, numerical scale, 4 months [3, 6]: 0
axial spinal pain, numerical scale, 6 months [3, 6]: 0
axial spinal pain, numerical scale, 1 month ([3]; Subject 2 (DDD and moderate osteoporosis), baseline 8-9, scale 0-10, 1.2 mg/kg iv once a day for 3 days): 5
axial spinal pain, numerical scale, 2 months [3, 7]: 0
axial spinal pain, numerical scale, 4 months [3, 7]: 0
axial spinal pain, numerical scale, 6 months [3, 7]: 0
axial spinal pain, numerical scale, 1 month ([3]; Subject 3 (DDD), baseline 5, scale 0-10, 1.2 mg/kg iv once a day for 3 days): 0
axial spinal pain, numerical scale, 2 months [3, 8]: 0
axial spinal pain, numerical scale, 4 months [3, 8]: 0
axial spinal pain, numerical scale, 6 months [3, 8]: 0
duration of pain relieving effects ([3]; iv treatment of chronic spinal mechanical pain): ≥ 6 months
longest reported duration of analgesic effect [4]: 2-3 weeks
bone density change [5]: increase in their bone density
bone density change at 6 months post-infusion ([5]; 6 months post-infusion): increase in their bone density
effect on bone resorption (bone resorption; doses recommended for the treatment of hypercalcemia): inhibits bone resorption apparently without inhibiting bone formation and mineralization
effect on accelerated bone resorption from osteoclast hyperactivity induced by various tumors (bone resorption): inhibits the accelerated bone resorption
antinociceptive effect (antinociception): dose-dependent antinociception

NCCCC(O)(P(=O)(O)O)P(=O)(O)O [alendronate]
antinociceptive effect (antinociception): analgesic effect only at the highest dose tested

CC(=O)Oc1ccccc1C(=O)O [acetylsalicylic acid]
antinociceptive effect (antinociception): dose-dependent antinociception

CC(O)(P(=O)(O)O)P(=O)(O)O [etidronate]
antinociceptive effect (antinociception): analgesic effect only at the highest dose tested
